# Data reported in patent US20040044079A1, “Methods and compositions for weight control” (The IAMS Company, priority 2002, published 2004).
# Columns and labels:
# [1] = Weekly body weight / weight loss of dogs on treatment diets; assay type: in vivo; conditions: for weight loss: phase II, compared with control diet, FIGS. 3 and 4
# Procedure: (§1) In phase I of the study, 80 beagle and mongrel dogs were fed a weight gain diet (36% protein, 26% fat by dry weight). The dogs were allowed to eat as much as they wished for 16 weeks. Weekly weight gain and daily food intake were measured for each dog. In phase II, the 20 dogs that were the poorest weight […] eliminated from the study. The 60 remaining dogs were randomly assigned to one of the four treatment groups. The treatment diets were the following: The dogs were given the treatment diets for 12 weeks. During this time the dogs were allowed to eat as much as they wished. Daily food intake and weekly body weight were measured. Body composition measurements were also taken, including fat, lean body mass, bone mineral content (BMC), and bone mineral density (BMD). These measurements help to determine the cause of weight loss-for instance, whether it is due to an increase in satiety and therefore reduced food intake, or an increase in thermogenesis. The measurements also allow a determination of whether weight loss results from a reduction in lean body mass or a loss of fat, or a combination of both.
# [2] = Daily food intake of dogs on treatment diets; assay type: in vivo; conditions: experimental period of phase II, compared among the four diets, FIGS. 1 and 2
# Procedure: as §1
# [3] = Average body condition scores of dogs on treatment diets; assay type: in vivo; conditions: for Average Body Condition Score: score 1 thin to 5 obese (Table 1); for Average Body Condition Score % Change: Day 0 to Day 84
# Procedure: as §1, with “both. [table]” for “both.”
# [4] = Whole body composition of overweight dogs fed treatment diets for 12 weeks; assay type: in vivo; conditions: for Area: absolute data; for Area (relative data) / BMD (relative data) / Lean + BMC (relative data) / Total (relative data) / BMC (relative data) / Fat (relative data) / Lean (relative data): relative change, beginning to end of phase II
# Procedure: as §1, with “following: Control. Similar to EUKANUBA REDUCED FAT dry dog food, consisting of approximately 19% protein and 10% fat on a dry weight basis, with an additional 3% poultry fat to achieve a total fat content of 13%. Free fatty acid mix. Identical to the control diet, but with 3% free fatty acids in place of the 3% poultry fat. The free fatty acid was technical grade linoleic acid. Ethyl esters of fatty acid mix. Identical to control diet, but with 3% ethyl ester of fatty acid in place of the 3% poultry fat. The ethyl ester used was ethyl oleate. Lotus leaf extract. Identical to the control, but with an additional 0.3% extract of lotus leaf. Lotus leaf extract has been used in China to promote human weight loss. It is purported to help induce a sense of satiety and reduce food consumption.” for “following:”
# [5] = incorporated into a high fat diet fed to mice; U.S. Pat. No. 6,054,480; cited from earlier work
# [6] = second Lean column (body share)
SMILES,weight loss [1],food intake [2],Average Body Condition Score ([3]; Day 0),Average Body Condition Score % Change [3],Average Body Condition Score ([3]; Day 84),"BMC (bone mineral content) ([4]; Day 0, absolute data)","Fat ([4]; Day 0, absolute data)","Lean ([4]; Day 0, absolute data)","Lean + BMC ([4]; Day 0, absolute data)","Total ([4]; Day 0, absolute data)","BMC ([4]; Day 0, share of whole body)","Fat ([4]; Day 0, share of whole body)","Lean ([4]; Day 0, share of whole body)","Area ([4]; Day 0, start of phase II)","BMC (bone mineral content) ([4]; Day 84, absolute data)","Fat ([4]; Day 84, absolute data)","Lean ([4]; Day 84, absolute data)","Lean + BMC ([4]; Day 84, absolute data)","Total ([4]; Day 84, absolute data)","Area ([4]; Day 84, end of phase II)",also measured
"CCCCC/C=C\C/C=C\CCCCCCCC(=O)O [T × 1, linoleic acid]",generally greatest,"ate intermediate amounts, slightly more than the control diet",4.1,−19.5%,3.3,263.95 g,5772.09 g,9840.21 g,10104.15 g,15876.27 g,1.67%,35.74%,62.58%,402.07 cm^2,257.27 g,4109.94 g,9607.27 g,9864.54 g,13974.49 g,387.39 cm^2,"BMC ([4]; Day 84, share of whole body): 1.84%; Fat ([4]; Day 84, share of whole body): 29.22%; Lean ([4]; Day 84, share of whole body): 68.94%; Area (relative data) [4]: −3.98%; BMD (relative data) [4]: 1.15%; Lean + BMC (relative data) [4]: −2.38%; Total (relative data) [4]: −11.75%; BMC (relative data) ([4]; first BMC column): −3.06%; Fat (relative data) ([4]; first Fat column (mass)): −28.22%; Lean (relative data) ([4]; first Lean column (mass)): −2.34%; BMC (relative data) ([4]; second BMC column (body share)): 10.16%; Fat (relative data) ([4]; second Fat column (body share)): −18.59%; Lean (relative data) [4, 6]: 10.84%"
"CCCCCCCC/C=C\CCCCCCCC(=O)OCC [T × 2, ethyl oleate]",lost more weight than the control group for the first 9 weeks of phase II,"ate intermediate amounts, slightly more than the control diet",4.0,−7.5%,3.7,253.62 g,5956.12 g,9667.31 g,9920 g,15877.02 g,1.61%,36.77%,61.63%,395.54 cm^2,229.74 g,4723.12 g,9837.15 g,10066.89 g,14790.01 g,362.26 cm^2,"average weight ([1]; 10th-12th weeks of phase II, compared with control group): average weight increased above that of the control group; BMC ([4]; Day 84, share of whole body): 1.57%; Fat ([4]; Day 84, share of whole body): 31.44%; Lean ([4]; Day 84, share of whole body): 66.99%; Area (relative data) [4]: −7.99%; BMD (relative data) [4]: −0.58%; Lean + BMC (relative data) [4]: −4.69%; Total (relative data) [4]: −6.56%; BMC (relative data) ([4]; first BMC column): −8.58%; Fat (relative data) ([4]; first Fat column (mass)): −18.59%; Lean (relative data) ([4]; first Lean column (mass)): 2.06%; BMC (relative data) ([4]; second BMC column (body share)): −2.39%; Fat (relative data) ([4]; second Fat column (body share)): −13.43%; Lean (relative data) [4, 6]: 9.61%"
CCCCCCCCCCCCCC(=O)O [myristic acid],,,,,,,,,,,,,,,,,,,,,effect on body weight [5]: caused weight loss or reduction of weight gain in the mice
